# “Also recorded” adds a separate entry of the source.
# Tested on: Raji-bearing NSGS mice with high tumour burden treated with hCART19
# Test: hCART19 treatment of Raji-bearing NSGS mice, high tumour burden
# Format: in vivo, mouse (NSGS)
# From the text: Six to eight-week old female NSG-SGM3 mice (NOD.Cg-Prkdcscid Il2rgtm1Wjl Tg(CMVIL3,CSF2,KITLG)1Eav/MloySzJ, Stock #013062) were purchased from the Jackson Laboratory. Raji cells were transfected with a luciferase construct via lentivirus to create Raji-luc cells as described elsewhere (Bai et al., 2015 Neuro Oncol., 17:545). Human CD19scFv-CD28-4-1BB-CD3ζ CART cells (PM-CAR1003, CART19) from Promab Biotechnologies were maintained for less than 7 days in AIM-V medium (GIBCO) supplemented with 300 IU/ml of hIL2 (Peprotech), 5% FBS and antibiotics. One day before the injection of Raji cells, mice were irradiated at a dose of 2 Gy in a CIXD Xstahl device. One million Raji-luc cells were injected IV via tail vein on day zero. Six days later, tumor loads were assessed using a Xenogen instrument and 15×10^6 CART19 cells were injected IV. Metyrosine was injected IP at 60 mg/kg/day for three days before the CART19 injection. On the day of CART19 injection, a fourth dose of 60 mg/kg was given IP and the mice were subsequently injected four more times at daily intervals at 30 mg/kg.
# Six to eight weeks old female NSG-SGM3 (NSGS) mice (NOD.Cg-Prkdcscid Il2rgtm1WjlTg (CMV-IL3, CSF2, KITLG) 1Eav/MloySzJ, Stock #013062) were purchased from the Jackson Laboratory. Raji cells were transfected with a luciferase construct via lentivirus to create Raji-luc cells. NSGS is a triple transgenic strain expressing human IL3, GM-CSF and SCF combine the features of the highly immunodeficient NOD scid gamma (NSG) mouse. One day before the injection of Raji cells, mice were irradiated at a dose of 2 Gy in a CIXD Xstahl device. In high tumor burden experiments in FIG. 5, 10^6 Raji-luc cells were injected IV via tail vein. Six days later, tumor loads were assessed using a Xenogen instrument and 15×10^6 hCART19 cells or untransduced T-cells were injected IV. In low tumor burden experiments in FIG. 6, 2×10^5 Raji-luc cells were injected IV via tail vein. Four days later, tumor loads were assessed using a Xenogen instrument and 15×10^6 hCART19 cells were injected IV. Metyrosine was injected IP at 60 mg/kg/day for three days before the hCART19 injection. On the day of CART19 injection, a fourth dose of 60 mg/kg was given IP and the mice were subsequently injected four more times at daily intervals at 30 mg/kg.
# [1] = 24 and 72 hours after hCART19, metyrosine pre-treatment
smiles,measurement,setting,value
"C[C@](N)(Cc1ccc(O)cc1)C(=O)O [metyrosine, α-methyl-tyrosine]",circulating catecholamines,[1],significantly reduced; also recorded: significantly lower
same,circulating human and mouse cytokines,[1],significantly reduced; also recorded: significantly lowered
same,circulating catecholamines,"24 and 72 hours after hCART19, metyrosine pre-treatment, listed as Metyrosine",able to block that effect
same,final outcome,"high tumour burden, hCART19 plus metyrosine",eventually died with progressive lymphoma
same,plasma dopamine,two time points after CART19 treatment,able to reduce dopamine production

# — patent US12564622B2, “Preventing cytokine release syndrome” (priority 2017, dated 2026)
